Values of other authors, collected in patent US6641839B1, “Pharmaceutical formulations for preventing drug tolerance” (Athpharma Limited, priority 1987, dated 2003).

Details: nitrate therapy, widely believed critical level

| SMILES | minimum critical plasma concentration for therapeutic effect |
| --- | --- |
| O=[N+]([O-])O[C@H]1CO[C@H]2[C@@H]1OC[C@H]2O [IS-2-MN, isosorbide-2-mononitrate] | approximately 20 ng/ml |
| O=[N+]([O-])O[C@@H]1CO[C@H]2[C@@H]1OC[C@@H]2O [IS-5-MN, isosorbide-5-mononitrate] | approximately 100 ng/ml |
